In patent US11124509B2, “Tri-substituted imidazoles for the inhibition of TGF beta and methods of treatment” (CLAVIUS PHARMACEUTICALS, LLC, priority 2017, dated 2021):
Where two headings read alike, the source gives them in different places.

Key:
[1] = tested on: TGF-beta 1 stimulated SBE-b1a HEK 293T cells; test: GeneBLAzer beta-lactamase reporter, TGF-beta 1 stimulated SBE-b1a HEK 293T cell-based assay (ThermoFisher SelectScreen); conditions: Homo sapiens, HEK-293T; TGF-beta 1 0.03 nM, 5 hours; inhibitor 10,000 nM to 0.316 nM; sigmoidal dose response curve fit; read-out: Cells (SBE_HEK293T) IC50
Method: (§1) Exemplified compounds were confirmed to inhibit ALK5 activity in enzyme and cellular assays in the following assay systems conducted by ThermoFisher in Madison, Wis. according to their commercially available protocols.
ThermoFisher SelectScreen™ Cell-Based Pathway Profiling Service GeneBLAzer Beta-Lactamase (b1a) Reporter Technology—TGF-Beta 1 Stimulated SBE-b1a HEK 293T Cell-Based Assay
SBE-b1a HEK 293T cells were thawed and re-suspended in Assay Media (OPTI-MEM, 0.5% dialyzed FBS, 0.1 mM NEAA, 1 mM Sodium Pyruvate, 100 U/mL/100 μg/mL Pen/Strep) to a concentration of 625,000 cells/mL. 32 μL of cell suspension (20,000 cells) was added to each well of a 384-well Poly-D-Lysine assay plate. Cells in Assay Media were incubated for 16-24 hours in the plate at 37° C./5% CO2 in a humidified incubator. 4 μL of a 10× serial dilution of ALK5 inhibitors (10x=100,000-3.16 nM) was added to appropriate wells of the plate and pre-incubated at 37° C./5% CO2 in a humidified incubator with cells for 30 minutes. Final concentration of inhibitor ranged from 10,000 nM to 0.316 nM. 4 μL of 10× TGF-beta 1 (final concentration of 0.03 nM) was added to wells containing the inhibitors. The plate was incubated for 5 hours at 37° C./5% CO2 in a humidified incubator. 8 μL of 1 μM Substrate Loading Solution was added to each well and the plate was incubated for 2 hours at room temperature before being read on a fluorescence plate reader. Percent inhibition was determined compared to DMSO only control (maximal TGF-beta 1 stimulation) and sigmoidal dose response curve fit yielded IC50 values as indicated in Table 2.

TGFBR1 (ALK5) = TGFBR1 (ALK5) (Homo sapiens (Human), UniProt P36897); test: LanthaScreen Eu Kinase Binding Assay TGFBR1 (ALK5) (ThermoFisher SelectScreen); conditions: read-out: TβRI (ALK5) Binding IC50
Sequence of TGFBR1 (ALK5) (P36897 34-503): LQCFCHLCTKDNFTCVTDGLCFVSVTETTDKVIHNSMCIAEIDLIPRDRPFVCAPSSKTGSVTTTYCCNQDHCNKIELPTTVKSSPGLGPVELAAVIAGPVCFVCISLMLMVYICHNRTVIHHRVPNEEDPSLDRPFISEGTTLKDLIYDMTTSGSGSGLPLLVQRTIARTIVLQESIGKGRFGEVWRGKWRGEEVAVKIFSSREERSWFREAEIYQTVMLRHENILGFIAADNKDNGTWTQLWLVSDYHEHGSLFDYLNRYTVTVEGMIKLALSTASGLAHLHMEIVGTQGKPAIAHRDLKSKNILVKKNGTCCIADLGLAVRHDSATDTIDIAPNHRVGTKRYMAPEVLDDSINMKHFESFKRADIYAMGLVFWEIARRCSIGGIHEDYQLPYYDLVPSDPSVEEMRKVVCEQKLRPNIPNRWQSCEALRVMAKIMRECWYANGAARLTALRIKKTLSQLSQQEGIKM
Method: as §1
ThermoFisher SelectScreen™ Biochemical Kinase Profiling Service, LanthaScreen™Eu Kinase Binding Assay TGFBR1 (ALK5)
Exemplified compounds were screened in 1% DMSO (final concentration) by 3-fold serial dilutions from 10,000 nM to 0.316 nM to produce an IC50 or at single concentrations of 10,000, 1000 and 100 nM according to the following protocol. To low volume, white 384-well plates (Greiner Cat #784207) add 160 nL 100× compound in 100% DMSO, 3.84 uL kinase buffer (50 mM HEPES, pH 7.5, 0.01% BRIJ-35, 10 mM MgCl2, 1 mM EGTA), 8 uL 2× kinase/antibody mixture in kinase buffer (final ALK5 concentration of 5 nM; final Eu-anti-GST antibody concentration of 2 nM), 4 uL 4× Tracer #178 in kinase buffer (final concentration of 5 nM). Gently shake the plates for 30 seconds and incubate at room temperature for 1 hour before reading fluorescence on a plate reader. Percent inhibition was determined compared to DMSO only control (maximal ALK5 tracer binding) and sigmoidal dose response curve fit yielded IC50 values as indicated in Table 2.

[2] = compounds marked with an asterisk: evaluated at three concentrations, IC50 depicted as less than the lowest concentration producing >50% inhibition
[3] = 3-fold serial dilutions 10,000 nM to 0.316 nM, ALK5 5 nM, Tracer #178 5 nM, sigmoidal dose response curve fit

| SMILES | IC50 [1] [µM] | IC50 (TGFBR1 (ALK5); [2]) [µM] | IC50 (TGFBR1 (ALK5); [3]) [µM] |
| --- | --- | --- | --- |
| Cn1ccc(-c2nc(-c3ccc(C(N)=O)cc3)[nH]c2-c2ccc3nccnc3c2)n1 [Compound 43] | 0.485 | < 0.1 |  |
| Cc1nc(-c2ccn(C)n2)c(-c2ccc3ncsc3c2)[nH]1 [Compound 44, 6-(2-methyl-4-(1-methyl-1H-pyrazol-3-yl)-1H-imidazol-5-yl)benzo[d]thiazole] | 0.0374 |  | 0.00666 |
| CC(C)n1ccc(-c2nc(CNc3cc(F)ccc3F)[nH]c2-c2ccc3nccnc3c2)n1 [Compound 45] | 0.323 | < 0.1 |  |
| Fc1cccc(NCc2nc(-c3ccn(C(F)F)n3)c(-c3ccc4nccnc4c3)[nH]2)c1 [Compound 46] | 0.0116 |  | 0.0056 |
| N#Cc1cccc(NCc2nc(-c3ccn(C(F)F)n3)c(-c3ccc4nccnc4c3)[nH]2)c1 [Compound 47] | 0.0195 |  | 0.0066 |
| CC(C)n1ccc(-c2nc(CNc3cccc(Cl)c3)[nH]c2-c2ccc3nccnc3c2)n1 [Compound 54] | 0.211 |  | 0.0312 |
| Cn1ccc(-c2nc[nH]c2-c2ccc3ncsc3c2)n1 [Compound 55] | 0.132 |  | 0.00471 |
| Cn1ccc(-c2nc[nH]c2-c2ccc3nccnc3c2)n1 [Compound 56] | 1.05 |  | 0.0436 |
| CC(C)n1ccc(-c2nc(CNc3ccccc3F)[nH]c2-c2ccc3nccnc3c2)n1 [Compound 57] | 2.19 |  | 0.128 |
| CC(C)n1ccc(-c2nc(CNc3cc(F)cc(C(N)=O)c3)[nH]c2-c2ccc3nccnc3c2)n1 [Compound 58] | 3.92 |  | 0.078 |
| NC(=O)c1ccc(-c2nc(-c3ccn(C(F)F)n3)c(-c3ccc4ncsc4c3)[nH]2)cc1 [Compound 61] | 0.0653 |  | 0.00755 |
| Cn1ccc(-c2nc(C(N)=O)[nH]c2-c2ccc3ncsc3c2)n1 [Compound 62, 5-(benzo[d]thiazol-6-yl)-4-(1-methyl-1H-pyrazol-3-yl)-1H-imidazole-2-carboxamide] | 1.13 |  | 0.0458 |
| Cc1cc(C(N)=O)cc(C)c1-c1nc(-c2ccn(C)n2)c(-c2ccc3ncsc3c2)[nH]1 [Compound 63] | 3.03 |  | 0.399 |
| CNC(=O)c1ccc(-c2nc(-c3ccn(C)n3)c(-c3ccc4ncsc4c3)[nH]2)cc1 [Compound 64, 4-(5-(benzo[d]thiazol-6-yl)-4-(1-methyl-1H-pyrazol-3-yl)-1H-imidazol-2-yl)-N-methylbenzamide] | 0.632 |  | 0.0446 |
| CCNC(=O)c1ccc(-c2nc(-c3ccn(C)n3)c(-c3ccc4ncsc4c3)[nH]2)cc1 [Compound 65] | 0.654 |  | 0.0462 |
| CN(C)C(=O)c1ccc(-c2nc(-c3ccn(C)n3)c(-c3ccc4ncsc4c3)[nH]2)cc1 [Compound 66] | 1.36 |  | 0.285 |
| Fc1cc(F)cc(NCc2nc(-c3ccn(C4CC4)n3)c(-c3ccc4nccnc4c3)[nH]2)c1 [Compound 68] | 0.0109 |  | 0.0012 |
